A short description of one data set: water-octanol partition coefficient (log P), OECD Test Guideline 107. It is filed as physicochemical.
Details: not given
Here is the method: The water-octanol partition coefficient, or log P value, is a value defined by OECD Test Guideline 107. […] The constituents shown in Table 1 were as below, and the log P values in Table 1 were determined in accordance with OECD Test Guideline 107. • (1) First solvents
As to `CCCCOCCOCCO` [butyl diglycol], the “log P (water-octanol partition coefficient)” value (“log P” below) is reported as 0.56.

The same data set, now with this note: OECD Test Guideline 107.
For orientation: logP means the decadic logarithm of the partition coefficient of the neutral form, usually between octanol and water. Read a high logP as a more lipophilic compound. `CCC(O)CO` (stereo not shown) [1,2-butanediol]: the logP is -0.34.

Turning to `COCCOCCOCCOCCO` [Methyl tetraglycol, reference compound], the “log P” value was −1.87.

As to dipropylene glycol monomethyl ether, the “log P” value is on record as −0.46.

Still in this data set, the particulars now being: octanol/water; OECD Test Guideline 107.
As for `CCCCCC(O)CO` (stereo not shown) [1,2-heptanediol], the logP came to 1.

In turn, `CCCCC(O)CO` (stereo not shown) [1,2-hexanediol] registered a logP of 0.7.

`OCC(CO)(CO)COc1ccccc1` [2-hydroxymethyl-2-phenoxymethyl-1,3-propanediol] showed a logP of 1.69.

`CC(O)(CO)COc1ccccc1` (stereo not shown) [2-methyl-3-phenoxy-1,2-propanediol]: the logP was 1.1.

`CC(C)(C)C(O)CO` (stereo not shown) [3,3-dimethylbutane-1,2-diol] registered a logP of -0.11.

`Cc1cccc(OCC(O)CO)c1` (stereo not shown) [3-(3-methylphenoxy)-1,2-propanediol] yielded a logP of 1.21.

`COc1ccc(COCC(O)CO)cc1` (stereo not shown) [3-(4-methoxybenzyloxy)-1,2-propanediol] registered a logP of 0.8.

On to `OCC(O)COCc1ccccc1` (stereo not shown) [3-benzyloxy-1,2-propanediol], for which the logP was found to be 0.88.

For `OCC(O)COc1ccccc1` (stereo not shown) [phenyl glyceryl ether], the logP amounted to 0.75.
